Source: patent US20240287138A1, “CYCLIC PEPTIDES FOR INHIBITING TNF RECEPTOR 1 ACTIVITY” (Merck Sharp & Dohme LLC, priority 2023, published 2024)
Like-named read-outs stand apart in the source and are kept apart here. Numbered stars: 1 amine (or outer) side, 2 acyl side, 3 side chain; on linkers, the order of the positions; unused ones are H or OH. Bridge positions count the residues as written; N and C are the ends. Square brackets hold non-standard residues; d marks the D form. Peptide text beside a SMILES is read from it. * marks the point of attachment. Trp(βS-Me,7-OMe) = COc1cccc2c([C@H](C)[C@H](N)C(=O)O)c[nH]c12; Trp(1-CH2COOH) = N[C@@H](Cc1cn(CC(=O)O)c2ccccc12)C(=O)O; Phe(4-CH2CH2COOH) = N[C@@H](Cc1ccc(CCC(=O)O)cc1)C(=O)O; Phe(4-SO2NH2) = N[C@@H](Cc1ccc(S(N)(=O)=O)cc1)C(=O)O; Trp(7-CN) = N#Cc1cccc2c(C[C@H](N)C(=O)O)c[nH]c12; Trp(7-Cl) = N[C@@H](Cc1c[nH]c2c(Cl)cccc12)C(=O)O; X20 = O=C1NCc2ccc(C[C@H](N[*:1])C(=O)[*:2])cc21; Phe(4-CONH2) = NC(=O)c1ccc(C[C@H](N)C(=O)O)cc1; Phe(4-COOH) = N[C@@H](Cc1ccc(C(=O)O)cc1)C(=O)O; 4Pal(3S-Me) = C[C@@H](c1ccncc1)[C@H](N)C(=O)O; Trp(7-aza) = N[C@@H](Cc1c[nH]c2ncccc12)C(=O)O; Pip(5R-OH) = O=C(O)[C@@H]1CC[C@@H](O)CN1; X1 = O=C([C@@H]1CC[C@H](N[*:1])C1)[*:2]; Met(O2) = CS(=O)(=O)CC[C@H](N)C(=O)O; 4Pal = N[C@@H](Cc1ccncc1)C(=O)O; NMeE = CN[C@@H](CCC(=O)O)C(=O)O; dHyp = O=C(O)[C@H]1C[C@H](O)CN1; Ahp(2) = CCCCC[C@H](N)C(=O)O; NEtAla = CCN[C@@H](C)C(=O)O; αMeS = C[C@](N)(CO)C(=O)O; Carboxymethyl = O=C(O)C*; Nle = CCCC[C@H](N)C(=O)O; Sar = CNCC(=O)O

What was measured:
[1] = biological target: T1, TNFα-induced NF-κB signal transduction pathway (TNFR1 signaling) in THP-1 cells (Homo sapiens, UniProt P19438); test: THP-1 Lucia NF-κB reporter cell assay, inhibition of TNFα-induced NF-κB signaling; format: cell-based; settings: THP-1 NF-κB Lucia reporter cells, 10 ng/mL TNFα, 16-18 h, secreted luciferase; read-out: THP-1 IC50
T1 sequence (P19438 30-455): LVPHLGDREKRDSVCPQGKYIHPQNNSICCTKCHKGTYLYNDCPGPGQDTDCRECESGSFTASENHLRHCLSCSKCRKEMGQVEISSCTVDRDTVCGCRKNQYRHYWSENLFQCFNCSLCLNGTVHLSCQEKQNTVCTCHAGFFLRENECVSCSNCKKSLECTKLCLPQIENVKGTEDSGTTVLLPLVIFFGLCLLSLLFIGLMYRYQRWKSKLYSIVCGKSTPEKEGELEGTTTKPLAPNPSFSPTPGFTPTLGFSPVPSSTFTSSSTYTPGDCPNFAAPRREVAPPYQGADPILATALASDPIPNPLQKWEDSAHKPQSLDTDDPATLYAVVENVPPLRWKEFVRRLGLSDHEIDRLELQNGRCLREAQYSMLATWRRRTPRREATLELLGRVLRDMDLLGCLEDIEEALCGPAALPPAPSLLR
Summary of the method: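 IC50 from a 4-parameter logistic fit of secreted luciferase luminescence (QUANTI-Luc), normalised to min/max controls. Reporter THP-1 cells were exposed to peptides for 1 h at 37 °C before 10 ng/mL TNFα (final) was added overnight (16–18 h).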

[2] = biological target: T2, human soluble TNFR1 (sTNFR1) (Homo sapiens, UniProt P19438); test: Human sTNFR1-peptide displacement assay (LanthaScreen Eu TR-FRET binding assay)
T2 construct: made in house; host or cells: Sf21 (baculovirus)
T2 sequence (P19438 with tags, fused parts or gaps): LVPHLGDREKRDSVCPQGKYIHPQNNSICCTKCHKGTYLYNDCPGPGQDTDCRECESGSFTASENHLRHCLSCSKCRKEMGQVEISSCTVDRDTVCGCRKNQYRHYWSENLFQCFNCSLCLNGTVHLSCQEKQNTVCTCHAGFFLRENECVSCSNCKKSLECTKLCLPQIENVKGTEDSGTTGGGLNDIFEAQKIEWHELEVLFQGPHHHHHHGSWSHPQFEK
Summary of the method: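 Readout is the 665/615 nm TR-FRET ratio (Eu anti-His donor, streptavidin-Alexa647 acceptor), normalized to DMSO and saturating displacer, fit by Morrison-based five-parameter logistic for Kd^app. His-tagged sTNFR1 (1-211) prebound to 100 nM biotinylated peptide SEQ ID NO.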

[3] = displacement of biotinylated peptide SEQ ID NO. 1 from sTNFR1, 20 point titration, 5-parameter fit based on Morrison equation (tight binding), read-out: TR-FRET Kd^app

Structure (SMILES)	IC50 [1]	Kd [2, 3]	Kd [2]
CCCC[C@@H]1NC(=O)[C@@H]2CC[C@@H](C2)NC(=O)[C@H]([C@@H](C)c2c[nH]c3c(OC)cccc23)NC(=O)CN(C)C(=O)[C@H](Cc2ccc(C(N)=O)cc2)NC(=O)[C@H](Cc2ccc(C(N)=O)cc2)NC(=O)[C@](C)(CO)NC(=O)[C@H](Cc2c[nH]c3c(C#N)cccc23)NC(=O)[C@H](Cc2ccc(C(=O)O)cc2)NC(=O)[C@H](CC(N)=O)NC(=O)[C@H]2C[C@H](O)CN2C(=O)[C@H](Cc2c[nH]c3ccccc23)NC(=O)[C@@H]2CC[C@@H](O)CN2C(=O)[C@H](Cc2ccncc2)NC1=O [SEQ ID NO. 45] (cyclo([4Pal][Pip(5R-OH)]W[dHyp]N[Phe(4-COOH)][Trp(7-CN)][αMeS][Phe(4-CONH2)][Phe(4-CONH2)][Sar][Trp(βS-Me,7-OMe)][X1][Nle]))	0.6 nM	0.05 nM	
CCCC[C@@H]1NC(=O)[C@@H]2CC[C@@H](C2)NC(=O)[C@H]([C@@H](C)c2c[nH]c3c(OC)cccc23)NC(=O)CN(C)C(=O)[C@H](Cc2ccc(C(N)=O)cc2)NC(=O)[C@H](Cc2ccc(C(N)=O)cc2)NC(=O)[C@](C)(CO)NC(=O)[C@H](Cc2c[nH]c3c(C#N)cccc23)NC(=O)[C@H](Cc2ccc3c(c2)C(=O)NC3)NC(=O)[C@H](CC(N)=O)NC(=O)[C@H]2C[C@H](OCC(=O)O)CN2C(=O)[C@H](Cc2cn(CC(=O)O)c3ccccc23)NC(=O)[C@@H]2CC[C@@H](O)CN2C(=O)[C@H](Cc2ccncc2)NC1=O [SEQ ID NO. 22] (cyclo([4Pal][Pip(5R-OH)][Trp(1-CH2COOH)][dHyp](Carboxymethyl)N[X20][Trp(7-CN)][αMeS][Phe(4-CONH2)][Phe(4-CONH2)][Sar][Trp(βS-Me,7-OMe)][X1][Nle]))	0.6 nM	0.08 nM	
CCCCC[C@@H]1NC(=O)[C@@H]2CC[C@@H](C2)NC(=O)[C@H]([C@@H](C)c2c[nH]c3c(OC)cccc23)NC(=O)CN(C)C(=O)[C@H](Cc2ccc(C(N)=O)cc2)NC(=O)[C@H](Cc2ccc(C(N)=O)cc2)NC(=O)[C@](C)(CO)NC(=O)[C@H](Cc2c[nH]c3c(C#N)cccc23)NC(=O)[C@H](Cc2ccc(C(=O)O)cc2)NC(=O)[C@H](CC(N)=O)NC(=O)[C@H]2C[C@H](O)CN2C(=O)[C@H](Cc2c[nH]c3ccccc23)NC(=O)[C@H](CCS(C)(=O)=O)NC(=O)[C@H]([C@@H](C)c2ccncc2)NC1=O [SEQ ID NO. 49] (cyclo([Ahp(2)][4Pal(3S-Me)][Met(O2)]W[dHyp]N[Phe(4-COOH)][Trp(7-CN)][αMeS][Phe(4-CONH2)][Phe(4-CONH2)][Sar][Trp(βS-Me,7-OMe)][X1]))	0.7 nM		0.2 nM
CCCC[C@@H]1NC(=O)[C@@H]2CC[C@@H](C2)NC(=O)[C@H]([C@@H](C)c2c[nH]c3c(OC)cccc23)NC(=O)CN(C)C(=O)[C@H](Cc2ccc(CCC(=O)O)cc2)NC(=O)[C@H](Cc2ccc(S(N)(=O)=O)cc2)NC(=O)[C@](C)(CO)NC(=O)[C@H](Cc2c[nH]c3c(C#N)cccc23)NC(=O)[C@H](Cc2ccc(OCC(=O)O)cc2)NC(=O)[C@H](CC(N)=O)NC(=O)[C@H]2C[C@H](O)CN2C(=O)[C@H](Cc2c[nH]c3ncccc23)NC(=O)[C@@H]2CC[C@@H](O)CN2C(=O)[C@H](Cc2ccncc2)NC1=O [SEQ ID NO. 30] (cyclo([4Pal][Pip(5R-OH)][Trp(7-aza)][dHyp]NY(Carboxymethyl)[Trp(7-CN)][αMeS][Phe(4-SO2NH2)][Phe(4-CH2CH2COOH)][Sar][Trp(βS-Me,7-OMe)][X1][Nle]))	0.5 nM	0.07 nM	
CCCC[C@@H]1NC(=O)CSC[C@@H](C(N)=O)NC(=O)[C@H]([C@@H](C)c2c[nH]c3c(OC)cccc23)NC(=O)CN(C)C(=O)[C@H](Cc2ccc(O)cc2)NC(=O)[C@H](Cc2ccc(C(=O)O)cc2)NC(=O)[C@](C)(CO)NC(=O)[C@H](Cc2c[nH]c3c(Cl)cccc23)NC(=O)[C@H](Cc2ccncc2)NC(=O)[C@H](CC(N)=O)NC(=O)[C@H](CCC(=O)O)N(C)C(=O)[C@H](Cc2c[nH]c3ncccc23)NC(=O)[C@H](C)N(CC)C(=O)[C@H](Cc2ccncc2)NC1=O [SEQ ID NO. 38] ({CH2CO}-[Nle][4Pal][NEtAla][Trp(7-aza)][NMeE]N[4Pal][Trp(7-Cl)][αMeS][Phe(4-COOH)]Y[Sar][Trp(βS-Me,7-OMe)]C-NH2; thioether N-14)	3.1 nM		0.7 nM
